Patent publication US20040248992A1, “Method and composition for inhibiting arteriosclerosis” (KANEKA CORPORATION, priority 2000, published 2004)

Experiments:
[1] = Plasma level of the reduced coenzyme Q10 in hamsters on high-fat diet (HPLC); format: in vivo
Description: Hamsters were fed on a high-fat diet containing 1.5% of cholesterol for one week and, then, a 1% (w/v) solution of either the oxidized or the reduced coenzyme Q10 in olive oil was administered orally for 4 consecutive days. After overnight fasting, the plasma was collected and the reduced coenzyme Q10 in the plasma was assayed by HPLC.

[2] = system: plasma low-density lipoprotein (LDL); assay: Antioxidant activity of plasma LDL (lag time of copper-induced conjugated diene formation) in hamsters on high-fat diet; format: in vivo; conditions: 1% (w/v) solution in olive oil plus pravastatin 10 mg/kg orally for 4 consecutive days, LDL 40 μg protein/mL, copper ion 1 μM, 234 nm, n = 3
Description: Hamsters were fed on a high-fat diet containing 1.5% of cholesterol for 1 week and, then, dosed orally with a 1% (w/v) solution of either the oxidized or the reduced coenzyme Q10 in olive oil and 10 mg of pravastatin per kg body weight for 4 consecutive days. After overnight fasting, the plasma was collected, the plasma LDL was separated by density-gradient centrifugation method, and as a marker of LDL antioxidant activity, the lag time was measured. The lag time is defined herein as the value found by adding a copper ion (1 μM) to LDL (40 μg protein/mL) and monitoring at 234 nm the time course of conjugated diene structure of oxidized fat/fatty acid resulting from oxidation to determine the time interval until a sharp increase had begun in the conjugated diene concentration.

| SMILES | Gain in reduced coenzyme Q10 in plasma ([1]; hamster, in vivo, po, 4 days) [ng/mL] | Gain in reduced coenzyme Q10 in plasma, relative to oxidized coenzyme Q10 group (100%) ([1]; hamster, in vivo, po, 4 days) [%] | Lag time (LDL antioxidant activity) [2] [min] | Gain in reduced coenzyme Q10 in plasma ([1]; hamsters on high-fat diet (1.5% cholesterol, 1 week), 1% (w/v) solution in olive oil orally for 4 consecutive days, plasma after overnight fasting, n = 3) [ng/mL] | Gain in reduced coenzyme Q10 in plasma, relative to oxidized coenzyme Q10 group (100%) ([1]; hamsters on high-fat diet, 1% (w/v) solution in olive oil orally for 4 consecutive days, n = 3) [%] |
| --- | --- | --- | --- | --- | --- |
| COC1=C(OC)C(=O)C(C/C=C(\C)CC/C=C(\C)CC/C=C(\C)CC/C=C(\C)CC/C=C(\C)CC/C=C(\C)CC/C=C(\C)CC/C=C(\C)CC/C=C(\C)CCC=C(C)C)=C(C)C1=O [oxidized coenzyme Q10] | 10.1 | 100 | 25 ± 8 |  |  |
| COc1c(O)c(C)c(C/C=C(\C)CC/C=C(\C)CC/C=C(\C)CC/C=C(\C)CC/C=C(\C)CC/C=C(\C)CC/C=C(\C)CC/C=C(\C)CC/C=C(\C)CCC=C(C)C)c(O)c1OC [reduced coenzyme Q10] |  |  | 44 ± 9 | 14.4 | 143 |
